The record followed here is patent US20180200331A1, “BST-2 AS A THERAPEUTIC TARGET AND DIAGNOSTIC MARKER FOR BREAST CANCER GROWTH AND METASTASIS” (University of Iowa Research Foundation, priority 2015, published 2018).

One data set relates to BST-2. Briefly: shRNA knockdown of BST-2 in E0771 and 4T1 cells. It is filed as cell-based, mouse. The following applies: E0771 and 4T1 cells stably transduced. The text has this:
E0771 and 4T1 cells were stably transduced with a construct expressing LV-CMV-firefly luciferase or an empty vector construct using lipofectamine following the manufacturer's instructions (Life Technologies, Carlsbad, Calif., USA). Stable transfectants were then transduced with lentiviral particles carrying BST-2-targeting sh137: CCGGC […] (SEQ ID NO:3); sh413: […] TTCTCAAGCTTTTTG (SEQ ID NO:4); or a non-targeting shControl: […] (SEQ ID NO:5) using a previously described protocol. Stable cells were generated by selection with the appropriate drug. The short hairpin RNA (shRNA) constructs were purchased from Sigma-Aldrich (St Louis, Mo., USA) (SHCLND-NM_198095) and lentiviral particles were generated at the Gene Transfer Vector Core at the University of Iowa.
Cell monolayers were washed with PBS and treated with Versene (Life Technologies). […] Stained cells were quantified using a FACSCalibur flow cytometer (BD Biosciences, San Jose, Calif., USA). […] Fluorescence-activated cell sorting (FACS) data were analyzed by Flowjo software (TreeStar, Ashland, Oreg., USA). […]
Western blots were performed as previously described. […] Band detection and quantification were carried out with the Odyssey Infrared Imaging System (LI-COR Biosciences, Lincoln, Nebr., USA).

The subject of data set [1] is 4T1 cells. Briefly: Orthotopic implantation of 4T1 cells in BALB/c mice. It is filed as in vivo. Here is the method: (§1) Five-week-old C57BL/6NCr and BALB/cAnNCr female mice were used. Mice were sacrificed when they became moribund. Tumor volume (TV) was calculated as: TV=0.5(length*width2). Tumor latency was calculated as the number of tumor-free injected mice/number of injected mice×100. To assess morbidity, the following clinical score ranking was used: (0) no abnormal clinical signs, (1) ruffled fur but lively, (2) ruffled fur, activity level slowing, sick, (3) ruffled fur, eyes squeezed shut, hunched, hardly moving, very sick, (4) moribund and (5) dead. Experiments involving mice were approved by the University of Iowa Animal Care and Use Committee (IACUC).
(§2) Prior to imaging, mice were anesthetized, weighed and injected intraperitoneally with D-luciferin. Mice were imaged using the Xenogen IVIS three dimensional optical imaging system (Caliper Life Sciences, Hopkinton, Mass., USA). Luciferase was quantified with Living Image Software (Caliper Life Sciences).

For data set [2], the system named is E0771 cells. In words: Orthotopic implantation of E0771 cells in C57BL/6 mice. It is filed as in vivo. The protocol: as §1, §2
Data set [3] deals with E0771 cells. Briefly: MEF adhesion assay. It is filed as cell-based, mouse. The following applies: luciferase bioluminescence and PKH67Green. The protocol:
Murine embryonic fibroblasts (MEFs) were grown to confluency in 6-well plates. Equivalent numbers (150,000) of cancer cells labeled with PKH67Green fluorescent cell linker, following the manufacturer's instructions (Sigma-Aldrich), were added to the MEF monolayer and allowed to incubate for 8 hours. Non-adhered cells were washed off and adhered cells imaged. Image J (NIH, Bethesda, Md., USA) was used to quantify the number of PKH67Greenpositive cells. In parallel, luciferase-expressing cancer cells were added to MEFs monolayers in 6-well plates for 8 hours. Non-adhered cells were washed off and adhered cells were treated with D-luciferin and imaged using IVIS. For luciferase assay, cancer cells plated in 96-well plate were used for quantitation of luciferase bioluminescence.

Data set [4] concerns 4T1 cells. In words: Collagen and fibronectin adhesion assay. The conditions noted are these: pre-coated plates, 4 hours. It is filed as cell-based, mouse. Here is the method: Ninety-six-well plates were coated with 50 μg/ml of collagen or fibronectin. Plates were incubated at 37° C. for 2 hours. Nonspecific sites were blocked with 40 μl of 2 mg/ml bovine serum albumin (BSA) in PBS. Wells were washed once with PBS. Cancer cells were labeled with PKH67 Green fluorescent cell linker, following the manufacturer's instructions (Sigma-Aldrich). Labelled cells were added to pre-coated wells (20,000 cells/well) and allowed to adhere for 4 hours. Non-adhered cells were washed off with PBS and plates were read at 485 nm/535 nm (excitation/emission) wavelengths using a Tecan Infinite M200 Pro plate reader (Tecan, Maennedorf, Switzerland). Values are represented as relative fluorescence unit.

The next data set has as its system mammary cancer cells. In words: Scratch assay. It is filed as cell-based, mouse. The following applies: 6 h and 24 h. The protocol:
Confluent monolayers of cancer cells plated in 12-well plates were scratched using a pipette tip. Fresh medium was added to the wells. Cells were allowed to migrate for 0, 6 or 24 hours before fixation (4% paraformaldehyde (PFA) for 45 minutes). Fixed cells were washed (1×PBS) and imaged with a Nikon Eclipse Ti microscope adjusted with a Nikon digital sight camera (Nikon, Tokyo, Japan). Images were processed and migrated cells counted using Image J software.

In data set [5] the test system is E0771 cells. Briefly: MTT assay, E0771. It is filed as cell-based, mouse. Here is the method:
(§3) A total of 5,000 cells stably expressing sh137, sh413, or shControl were plated in 96-well plates. Cells were then incubated with 5 mg/ml MTT reagent for 3.5 hours followed by addition of MTT solvent (0.1% NP-40 and 4 mM HCl in isopropanol) and rocking for 15 minutes. Absorbance at 590 nm was read using a Tecan Infinite M200 Pro plate reader.

The test system of data set [6] is 4T1 cells. In words: MTT assay, 4T1. It is filed as cell-based, mouse. The protocol:
as §3
A general note: Tetrazolium assays rely on reduction of a dye to a coloured formazan, in cell work by metabolically active cells.

“sh413: BST-2-targeting shRNA (SEQ ID NO:4), delivered by lentiviral particles (CCGGGCTTGAGAATGAAGTCACGAACTCGAGTTCGTGACTTCATTCTCAAGCTTTTTG)”: the BST-2 expression entry with BST-2 is “more efficiently suppressed BST-2”. In the data set on 4T1 cells [1] (Kaplan-Meier), the “median overall survival (OS)” value was “undefined” and the “survival area under the curve (AUC)” value is listed as 3,900. Besides, the “number of tumors in intestine and mesentery” value in the data set with 4T1 cells [1] (average of all mice) is listed as “six”. Also, in the data set with 4T1 cells [1] (compared to shControl cells), the mammary tumor latency result is “increased mammary tumor latency”. The “tumor volume over time” value in the data set with 4T1 cells [1] (compared to shControl tumors) is recorded as “significantly lower”. For the same substance, the “mice survived to end of experiment” value in the data set on 4T1 cells [1] (day 45) is 14 out of 15. Besides, in the data set on 4T1 cells [1] (mouse, in vivo), the “incidence of metastases to the liver” value is listed as 46%; the “incidence of metastases to the lung” value turned out to be 40%; the “mice spared of ascites and splenomegaly” value was 14 out of 15. Besides, the average tumor mass in the data set on 4T1 cells [1] (n=15, at necropsy) is listed as 0.37 g. In the data set with E0771 cells [2] (Kaplan-Meier), the “median overall survival (OS)” value worked out at 23 days and the “survival area under the curve (AUC)” value is 2,679. For the same substance, the malignant ascites entry in the data set on E0771 cells [2] (n=10) is recorded as “prevented the development of malignant ascites”. The “cancer cell adhesion to MEF” value with E0771 cells [3] is recorded as “decreased the ability of cancer cells to adhere to supporting cells”. In the data set with 4T1 cells [4], the adhesion to collagen entry is “reduced adhesive capability” and the adhesion to fibronectin result is recorded as “reduced adhesive capability”. Moreover, the “migration into scratch wound” value with mammary cancer cells is reported as “lost the ability to migrate”. Further, the “cell viability (MTT)” value in the data set on E0771 cells [5] is on record as “equally viable”. For the same substance, the “cell viability (MTT)” value with 4T1 cells [6] was “increased cell viability”.
